In patent US20140081017A1, “Histone Deacetylase Inhibitors for Enhancing Activity of Antifungal Agents” (METHYLGENE INC., priority 2012, published 2014):
In brackets after ≈: the same amount, converted by molar mass. Like-named read-outs stand apart in the source and are kept apart here.

Experiments:
Candida parapsilosis = test: Minimal Inhibitory Concentration (MIC) assay, broth microdilution per CLSI; type: cell-based; details: Lodderomyces parapsilosis, read-out: Minimum Inhibitory Concentrations against Yeast Isolates, Candida parapsilosis;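 further: two read times 24 hr and 48 hr of incubation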
Outline: (§1)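 CLSI broth microdilution in RPMI with 0.165 M MOPS, pH 7.0, inoculum from 0.5 McFarland suspension diluted 1:100; compounds in DMSO. Incubation at 35°C for about 24-48 hr; MIC is lowest concentration without visible growth, fluconazole at prominent decrease in growth.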

Candida albicans = test: as above; type: cell-based; details: Candida albicans, read-out: Minimum Inhibitory Concentrations against Yeast Isolates, Candida albicans;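 further: two read times 24 hr and 48 hr of incubation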
Outline: as §1

Candida glabrata = test: as above; type: cell-based; details: Nakaseomyces glabratus, read-out: Minimum Inhibitory Concentrations against Yeast Isolates, Candida glabrata;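 further: two read times 24 hr and 48 hr of incubation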
Outline: as §1

C. glabrata = test: Checkerboard FIC assay in combination with fluconazole (MIC alone and in combination, FICI); type: cell-based, Candida glabrata; details: for FICI of combination resulting in fluconazole MIC of: 2 ug/mL / FICI of combination resulting in fluconazole MIC of: 4 ug/mL / FICI of combination resulting in fluconazole MIC of: 8 ug/mL: FICI calculated using a fluconazole MIC of 16 μg/mL; for FICI of combination resulting in fluconazole MIC of: 2 ug/mL (value in parenthesis) / FICI of combination resulting in fluconazole MIC of: 4 ug/mL (value in parenthesis) / FICI of combination resulting in fluconazole MIC of: 8 ug/mL (value in parenthesis): FICI using a fluconazole MIC of 128 μg/mL; for MIC: Nakaseomyces glabratus; for Multiple of compound MIC to synergize fluconazole MIC to 2 ug/mL / Multiple of compound MIC to synergize fluconazole MIC to 4 ug/mL / Multiple of compound MIC to synergize fluconazole MIC to 8 ug/mL: concentration in combination as multiple of the compound's MIC alone; for Multiple of compound MIC to synergize fluconazole MIC to 2 ug/mL: fluconazole MIC 2 ug/mL; for Multiple of compound MIC to synergize fluconazole MIC to 4 ug/mL: fluconazole MIC 4 ug/mL; for Multiple of compound MIC to synergize fluconazole MIC to 8 ug/mL: fluconazole MIC 8 ug/mL; for Concentration of Methylgene compound to synergize fluconazole MIC to 2 ug/mL / Concentration of Methylgene compound to synergize fluconazole MIC to 4 ug/mL / Concentration of Methylgene compound to synergize fluconazole MIC to 8 ug/mL: in combination with fluconazole; for Concentration of Methylgene compound to synergize fluconazole MIC to 2 ug/mL: fluconazole MIC lowered to 2 ug/mL; for Concentration of Methylgene compound to synergize fluconazole MIC to 4 ug/mL: fluconazole MIC lowered to 4 ug/mL; for Concentration of Methylgene compound to synergize fluconazole MIC to 8 ug/mL: fluconazole MIC lowered to 8 ug/mL
Outline: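 A fluconazole synergy checkerboard was run against C. glabrata in MOPS-buffered RPMI (pH 7.0) for about 48 h at 35 °C. Each agent was diluted 2-fold, with one row and one column holding each agent alone for MIC determination. FICI was calculated from these MICs, using a 0.5 McFarland inoculum diluted 1:100 per CLSI.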

[1] = 24 hr reading (first value of cell 24 hr/48 hr)
[2] = 48 hr reading (second value of cell 24 hr/48 hr)
[3] = MIC of the example compound alone against C. glabrata in the checkerboard assay, approximately 48 hr, read-out: Methylgene MIC
[4] = test compound alone, C. glabrata, approx. 48 hr at 35° C., read-out: Compound MIC

| Compound | MIC (Candida parapsilosis; [1]) [µg/mL] | MIC (Candida parapsilosis; [2]) [µg/mL] | MIC (Candida albicans; [1]) [µg/mL] | MIC (Candida albicans; [2]) [µg/mL] | MIC (Candida glabrata; [1]) [µg/mL] | MIC (Candida glabrata; [2]) [µg/mL] | FICI of combination resulting in fluconazole MIC of: 2 ug/mL (C. glabrata; C. glabrata) | FICI of combination resulting in fluconazole MIC of: 4 ug/mL (C. glabrata; C. glabrata) | FICI of combination resulting in fluconazole MIC of: 8 ug/mL (C. glabrata; C. glabrata) | FICI of combination resulting in fluconazole MIC of: 2 ug/mL (value in parenthesis) (C. glabrata; C. glabrata) | FICI of combination resulting in fluconazole MIC of: 4 ug/mL (value in parenthesis) (C. glabrata; C. glabrata) | FICI of combination resulting in fluconazole MIC of: 8 ug/mL (value in parenthesis) (C. glabrata; C. glabrata) | MIC (C. glabrata; [3]) [µg/mL] | MIC (C. glabrata; [4]) [µg/mL] | Multiple of compound MIC to synergize fluconazole MIC to 2 ug/mL (C. glabrata) | Multiple of compound MIC to synergize fluconazole MIC to 4 ug/mL (C. glabrata) | Multiple of compound MIC to synergize fluconazole MIC to 8 ug/mL (C. glabrata) | Concentration of Methylgene compound to synergize fluconazole MIC to 2 ug/mL (C. glabrata; C. glabrata) [µg/mL] | Concentration of Methylgene compound to synergize fluconazole MIC to 4 ug/mL (C. glabrata; C. glabrata) [µg/mL] | Concentration of Methylgene compound to synergize fluconazole MIC to 8 ug/mL (C. glabrata; C. glabrata) [µg/mL] |
| --- | --- | --- | --- | --- | --- | --- | --- | --- | --- | --- | --- | --- | --- | --- | --- | --- | --- | --- | --- | --- |
| O=C(Cc1ccc(CCCCc2ccc(C(=O)N3CCN(CCn4ccnc4)CC3)cc2)cc1)NO [Example 21, 2-(4-(4-(4-(4-(2-(1H-imidazol-1-yl)ethyl)piperazine-1-carbonyl)phenyl)butyl)phenyl)-N-hydroxyacetamide] | > 64 | > 64 | > 64 | > 64 | 16 (≈ 32.7 µM) | 32 (≈ 65.4 µM) | 0.313 | 0.250 | 0.375 | 0.266 | 0.156 | 0.188 | 16 | 16 | (¼x) | (⅛X) | (⅛X) | 4 | 2 | 2 |
| COCCOCCOCCNS(=O)(=O)c1ccc(CCCCc2ccc(CC(=O)NO)cc2)cc1 [Example 12, N-hydroxy-2-(4-(4-(4-(N-(2-(2-(2-methoxyethoxy)ethoxy)ethyl)sulfamoyl)phenyl)butyl)phenyl)acetamide] | > 64 | > 64 | > 64 | > 64 | 4 (≈ 7.86 µM) | 16 (≈ 31.5 µM) | 0.313 | 0.250 | 0.375 | 0.266 | 0.156 | 0.188 | 16 | 16 | (¼x) | (⅛x) | (⅛x) | 4 | 2 | 2 |
| O=C(Cc1ccc(CCC(F)Cc2ccccc2)cc1)NO (stereo not shown) [Example 60, 2-(4-(3-fluoro-4-phenylbutyl)phenyl)-N-hydroxyacetamide] | 4 (≈ 13.3 µM) | 8 (≈ 26.5 µM) | 4 (≈ 13.3 µM) | 4 (≈ 13.3 µM) | 2 (≈ 6.64 µM) | 2 (≈ 6.64 µM) | 0.563 | 0.625 | 0.500 | 0.516 | 0.531 | 0.313 | 2 | 2 | (½x) | (½x) | (¼x) | 1 | 1 | 0.5 |
| O=C(Cc1ccc(C(O)CCCc2ccccc2)cc1)NO (stereo not shown) [Example 59, N-hydroxy-2-(4-(1-hydroxy-4-phenylbutyl)phenyl)acetamide] | > 64 | > 64 | > 64 | > 64 | 16 (≈ 53.4 µM) | 64 (≈ 214 µM) | 0.313 | 0.375 | 0.375 | 0.266 | 0.281 | 0.188 | > 16 | > 16 | – | – | – | 8 | 8 | 4 |
| COCCOCCOCC(=O)Nc1cccc(CCCCc2ccc(CC(=O)NO)cc2)c1 [Example 40, N-hydroxy-2-(4-(4-(3-(2-(2-(2-methoxyethoxy)ethoxy)acetamido)phenyl)butyl)phenyl)acetamide] | > 64 | > 64 | > 64 | > 64 | 2 (≈ 4.36 µM) | 32 (≈ 69.8 µM) | 0.313 | 0.250 | 0.375 | 0.266 | 0.156 | 0.188 | 16 | 16 | (¼x) | (⅛x) | (⅛x) | 4 | 2 | 2 |

Results, then the compound that gave them:

| MIC (Candida parapsilosis; [1]) [µg/mL] | MIC (Candida parapsilosis; [2]) [µg/mL] | MIC (Candida albicans; [1]) [µg/mL] | MIC (Candida albicans; [2]) [µg/mL] | MIC (Candida glabrata; [1]) [µg/mL] | MIC (Candida glabrata; [2]) [µg/mL] | FICI of combination resulting in fluconazole MIC of: 2 ug/mL (C. glabrata; C. glabrata) | FICI of combination resulting in fluconazole MIC of: 4 ug/mL (C. glabrata; C. glabrata) | FICI of combination resulting in fluconazole MIC of: 8 ug/mL (C. glabrata; C. glabrata) | FICI of combination resulting in fluconazole MIC of: 2 ug/mL (value in parenthesis) (C. glabrata; C. glabrata) | FICI of combination resulting in fluconazole MIC of: 4 ug/mL (value in parenthesis) (C. glabrata; C. glabrata) | FICI of combination resulting in fluconazole MIC of: 8 ug/mL (value in parenthesis) (C. glabrata; C. glabrata) | MIC (C. glabrata; [3]) [µg/mL] | MIC (C. glabrata; [4]) [µg/mL] | Multiple of compound MIC to synergize fluconazole MIC to 2 ug/mL (C. glabrata) | Multiple of compound MIC to synergize fluconazole MIC to 4 ug/mL (C. glabrata) | Multiple of compound MIC to synergize fluconazole MIC to 8 ug/mL (C. glabrata) | Concentration of Methylgene compound to synergize fluconazole MIC to 2 ug/mL (C. glabrata; C. glabrata) [µg/mL] | Concentration of Methylgene compound to synergize fluconazole MIC to 4 ug/mL (C. glabrata; C. glabrata) [µg/mL] | Concentration of Methylgene compound to synergize fluconazole MIC to 8 ug/mL (C. glabrata; C. glabrata) [µg/mL] | Compound |
| --- | --- | --- | --- | --- | --- | --- | --- | --- | --- | --- | --- | --- | --- | --- | --- | --- | --- | --- | --- | --- |
| > 8 | > 8 | > 8 | > 8 | 8 (≈ 18.4 µM) | > 8 | 0.188 | 0.250 | 0.313 | 0.141 | 0.156 | 0.125 | 16 | 16 | (⅛x) | (⅛x) | ( 1/16x) | 2 | 2 | 1 | O=C(Cc1ccc(CCCCc2ccc(C(=O)NCCCn3ccnc3)cc2)cc1)NO [Example 22, N-(3-(1H-imidazol-1-yl)propyl)-4-(4-(4-(2-(hydroxyamino)-2-oxoethyl)phenyl)butyl)benzamide] |
| > 4 | > 4 | > 4 | > 4 | > 4 | > 4 | 0.188 | 0.188 | 0.313 | 0.141 | 0.094 | 0.125 | > 4 | > 4 | – | – | – | 1 | 0.5 | 0.5 | COC(=O)Nc1ccc(CCCCc2ccc(CC(=O)NO)cc2)cc1 [Example 48, methyl 4-(4-(4-(2-(hydroxyamino)-2-oxoethyl)phenyl)butyl) phenylcarbamate] |
| > 8 | > 8 | > 8 | > 8 | 0.5 (≈ 1.39 µM) | 8 (≈ 22.3 µM) | 0.125 | 0.155 | 0.280 | 0.078 | 0.061 | 0.093 | 4 | 4 | ( 1/16x) | ( 1/16x) | ( 1/16x) | 0.25 | 0.12 | 0.12 | O=C(Cc1ccc(CCCCc2ccc(-c3ccccc3)cc2)cc1)NO [Example 5, 2-(4-(4-(biphenyl-4-yl)butyl)phenyl)-N-hydroxyacetamide] |
